This note sets out measurements from US11878965B2, “Inhibitors of peptidylarginine deiminases” (Gilead Sciences, Inc., priority 2020, dated 2024).

human PAD4, sequence (Q9UM07 2-663): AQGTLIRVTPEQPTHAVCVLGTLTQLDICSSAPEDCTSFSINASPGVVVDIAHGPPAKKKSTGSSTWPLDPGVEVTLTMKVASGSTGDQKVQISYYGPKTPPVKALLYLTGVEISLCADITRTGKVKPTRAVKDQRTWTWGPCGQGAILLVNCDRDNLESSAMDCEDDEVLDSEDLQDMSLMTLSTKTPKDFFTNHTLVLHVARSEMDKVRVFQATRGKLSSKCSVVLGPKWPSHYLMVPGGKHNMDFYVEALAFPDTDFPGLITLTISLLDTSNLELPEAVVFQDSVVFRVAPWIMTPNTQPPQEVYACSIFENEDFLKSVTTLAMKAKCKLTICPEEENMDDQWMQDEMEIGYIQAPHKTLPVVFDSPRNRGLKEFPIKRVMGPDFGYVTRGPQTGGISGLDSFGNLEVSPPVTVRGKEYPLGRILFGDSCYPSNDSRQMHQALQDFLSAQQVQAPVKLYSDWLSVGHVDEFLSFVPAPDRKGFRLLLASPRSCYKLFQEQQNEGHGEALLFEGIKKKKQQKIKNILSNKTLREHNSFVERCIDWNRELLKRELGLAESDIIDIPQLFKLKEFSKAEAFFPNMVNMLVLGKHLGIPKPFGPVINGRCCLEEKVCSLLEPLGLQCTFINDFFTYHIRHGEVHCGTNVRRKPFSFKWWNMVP

This experiment deals with human PAD4 (Homo sapiens (Human), UniProt Q9UM07). Nature of the experiment: In Vitro PAD4 BAEE Biochemical Assay. To be noted: human PAD4, BAEE substrate; 5 nM PAD4, 2 mM calcium chloride, 3 mM BAEE; geometric mean of multiple experiments. The essentials:
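Recombinant human PAD4 (His-SUMO tag removed, E. coli-expressed), 5 nM, preincubated with compound and 2 mM CaCl2 30 min at 25 °C in MOPS pH 7.6 with DTT; 3 mM BAEE added for 2 h at 25 °C, EDTA stop. Released ammonia detected by o-phthalaldehyde/DTT fluorescence (ex 405, em 535 nm).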
One may read the IC50 as the point on the concentration scale where inhibition reaches its midpoint. Turning to `COc1cc(C(=O)N2C[C@H](N)CCN2C)cc2nc(-c3cc4ccc([C@@H](C)NC(=O)c5cccnc5C)nc4n3CC3CC3)n(C)c12` [Example 177, N-((R)-1-(2-(5-((R)-5-amino-2-methylhexahydropyridazine-1-carbonyl)-7-methoxy-1-methyl-1H-benzo[d]imidazol-2-yl)-1-(cyclopropylmethyl)-1H-pyrrolo[2,3-b]pyridin-6-yl)ethyl)-2-methylnicotinamide], the IC50 was 90.8 nM.
With `COc1cc(C(=O)N2C[C@H](N)CCN2C)cc2nc(-c3cc4ccc([C@@H](C)NC(=O)c5c(C)ccnc5C)nc4n3CC3CC3)n(C)c12` [Example 178, N-((R)-1-(2-(5-((R)-5-amino-2-methylhexahydropyridazine-1-carbonyl)-7-methoxy-1-methyl-1H-benzo[d]imidazol-2-yl)-1-(cyclopropylmethyl)-1H-pyrrolo[2,3-b]pyridin-6-yl)ethyl)-2,4-dimethylnicotinamide], the IC50 came out at 80.4 nM.
Consider `COc1cc(C(=O)N2C[C@H](N)CCN2C)cc2nc(-c3cc4ccc([C@@H](C)NC(=O)c5cc(C)nc(C)c5)nc4n3CC3CC3)n(C)c12` [Example 179, N-((R)-1-(2-(5-((R)-5-amino-2-methylhexahydropyridazine-1-carbonyl)-7-methoxy-1-methyl-1H-benzo[d]imidazol-2-yl)-1-(cyclopropylmethyl)-1H-pyrrolo[2,3-b]pyridin-6-yl)ethyl)-2,6-dimethylisonicotinamide], for which the IC50 amounted to 77.5 nM.
Take `COc1cc(C(=O)N2C[C@H](N)CCN2C)cc2nc(-c3cc4ccc([C@@H](C)NC(=O)c5ncccn5)nc4n3CC3CC3)n(C)c12` [Example 180, N-((R)-1-(2-(5-((R)-5-amino-2-methylhexahydropyridazine-1-carbonyl)-7-methoxy-1-methyl-1H-benzo[d]imidazol-2-yl)-1-(cyclopropylmethyl)-1H-pyrrolo[2,3-b]pyridin-6-yl)ethyl)pyrimidine-2-carboxamide]: the IC50 came out at 28.8 nM.
Turning to `COc1cc(C(=O)N2C[C@H](N)CCN2C)cc2nc(-c3cc4ccc([C@@H](C)NC(=O)c5nccc(C)n5)nc4n3CC3CC3)n(C)c12` [Example 181, N-((R)-1-(2-(5-((R)-5-amino-2-methylhexahydropyridazine-1-carbonyl)-7-methoxy-1-methyl-1H-benzo[d]imidazol-2-yl)-1-(cyclopropylmethyl)-1H-pyrrolo[2,3-b]pyridin-6-yl)ethyl)-4-methylpyrimidine-2-carboxamide], the IC50 is 74.9 nM.
Under `COc1cc(C(=O)N2C[C@H](N)CCN2C)cc2nc(-c3cc4ccc([C@@H](C)NC(=O)c5nccc(C(F)(F)F)n5)nc4n3CC3CC3)n(C)c12` [Example 182, N-((R)-1-(2-(5-((R)-5-amino-2-methylhexahydropyridazine-1-carbonyl)-7-methoxy-1-methyl-1H-benzo[d]imidazol-2-yl)-1-(cyclopropylmethyl)-1H-pyrrolo[2,3-b]pyridin-6-yl)ethyl)-4-(trifluoromethyl)pyrimidine-2-carboxamide] stands 104 nM.
Consider `COc1cc(C(=O)N2C[C@H](N)CCN2C)cc2nc(-c3cc4ccc([C@@H](C)NC(=O)c5nc(C)cc(C(F)(F)F)n5)nc4n3CC3CC3)n(C)c12` [Example 183, N-((R)-1-(2-(5-((R)-5-amino-2-methylhexahydropyridazine-1-carbonyl)-7-methoxy-1-methyl-1H-benzo[d]imidazol-2-yl)-1-(cyclopropylmethyl)-1H-pyrrolo[2,3-b]pyridin-6-yl)ethyl)-4-methyl-6-(trifluoromethyl)pyrimidine-2-carboxamide], for which the IC50 was found to be 198 nM.
Turning to `COc1cc(C(=O)N2C[C@H](N)CCN2C)cc2nc(-c3cc4ccc([C@@H](C)NC(=O)c5c(C)cccc5C(F)(F)F)nc4n3CC3CC3)n(C)c12` [Example 184, N-((R)-1-(2-(5-((R)-5-amino-2-methylhexahydropyridazine-1-carbonyl)-7-methoxy-1-methyl-1H-benzo[d]imidazol-2-yl)-1-(cyclopropylmethyl)-1H-pyrrolo[2,3-b]pyridin-6-yl)ethyl)-2-methyl-6-(trifluoromethyl)benzamide], the IC50 came to 204 nM.
On to `COc1cc(C(=O)N2C[C@H](N)CCN2C)cc2nc(-c3cc4ccc([C@@H](C)NC(=O)C56CC(C5)C6)nc4n3CC3CC3)n(C)c12` [Example 185, N-((R)-1-(2-(5-((R)-5-amino-2-methylhexahydropyridazine-1-carbonyl)-7-methoxy-1-methyl-1H-benzo[d]imidazol-2-yl)-1-(cyclopropylmethyl)-1H-pyrrolo[2,3-b]pyridin-6-yl)ethyl)bicyclo[1.1.1]pentane-1-carboxamide], for which the IC50 was 82.1 nM.
For `COc1cc(C(=O)N2C[C@H](N)CCN2C)cc2nc(-c3cc4ccc([C@@H](C)NC(=O)C56CC(Cl)(C5)C6)nc4n3CC3CC3)n(C)c12` [Example 186, N—((R)-1-(2-(5-((R)-5-amino-2-methylhexahydropyridazine-1-carbonyl)-7-methoxy-1-methyl-1H-benzo[d]imidazol-2-yl)-1-(cyclopropylmethyl)-1H-pyrrolo[2,3-b]pyridin-6-yl)ethyl)-3-chlorobicyclo[1.1.1]pentane-1-carboxamide], the IC50 is 105 nM.
Take `COc1cc(C(=O)N2C[C@H](N)CCN2C)cc2nc(-c3cc4ccc([C@@H](C)NC(=O)C56CC(C)(C5)C6)nc4n3CC3CC3)n(C)c12` [Example 187, N-((R)-1-(2-(5-((R)-5-amino-2-methylhexahydropyridazine-1-carbonyl)-7-methoxy-1-methyl-1H-benzo[d]imidazol-2-yl)-1-(cyclopropylmethyl)-1H-pyrrolo[2,3-b]pyridin-6-yl)ethyl)-3-methylbicyclo[1.1.1]pentane-1-carboxamide]: the half-maximal inhibitory concentration (IC50) amounted to 96.9 nM.
On to `COc1cc(C(=O)N2C[C@H](N)CCN2C)cc2nc(-c3cc4ccc([C@@H](C)NC(=O)C56CC(C(F)(F)F)(C5)C6)nc4n3CC3CC3)n(C)c12` [Example 188, N-((R)-1-(2-(5-((R)-5-amino-2-methylhexahydropyridazine-1-carbonyl)-7-methoxy-1-methyl-1H-benzo[d]imidazol-2-yl)-1-(cyclopropylmethyl)-1H-pyrrolo[2,3-b]pyridin-6-yl)ethyl)-3-(trifluoromethyl)bicyclo [1.1.1]pentane-1-carboxamide], for which the IC50 was determined as 149 nM.
`[2H]C([2H])([2H])C(C(=O)N[C@H](C)c1ccc2cc(-c3nc4cc(C(=O)N5C[C@H](N)CCN5C)cc(OC)c4n3C)n(CC3CC3)c2n1)(C([2H])([2H])[2H])C([2H])([2H])[2H]` [Example 189, N-((R)-1-(2-(5-((R)-5-amino-2-methylhexahydropyridazine-1-carbonyl)-7-methoxy-1-methyl-1H-benzo[d]imidazol-2-yl)-1-(cyclopropylmethyl)-1H-pyrrolo[2,3-b]pyridin-6-yl)ethyl)-2,2-bis(methyl-d3)propanamide]: the IC50 amounted to 92.2 nM.
In the case of `COc1cc(C(=O)N2C[C@H](N)CCN2C)cc2nc(-c3cc4ccc([C@@H](C)NC(=O)C5(CF)CC5)nc4n3CC3CC3)n(C)c12` [Example 190, N-((R)-1-(2-(5-((R)-5-amino-2-methylhexahydropyridazine-1-carbonyl)-7-methoxy-1-methyl-1H-benzo[d]imidazol-2-yl)-1-(cyclopropylmethyl)-1H-pyrrolo[2,3-b]pyridin-6-yl)ethyl)-1-(fluoromethyl)cyclopropane-1-carboxamide], the IC50 was 89.7 nM.
